{
  "source": "patent US20260151376A1",
  "about": "“COMBINATION THERAPY FOR THE TREATMENT OF CANCER” (INSTITUT NATIONAL DE LA SANTÉ ET DE LA RECHERCHE MÉDICALE, priority 2022, published 2026)",
  "key": {"CT26 tumors [1]": {"tested_on": "CT26 tumors", "assay": "CT26 tumor model, oral HA15 and anti-PDL1 (Example 2)", "format": "in vivo, mice", "experimental": "Mice: A total of 60 female BALB/C mice aged 5 weeks and weighted between 15-19 g, were ordered from Envigo. These had one week of acclimatation in C3M animal facility. Animals were housed in IVC cages (5 per cage) with individual mice identified by ear tag. All animals were allowed free access to a standard certified commercial diet and sanitised water during the study. The holding room was maintained under standard conditions: 18-24° C., 55-70% humidity and a 12h light/dark cycle. One week before dosing start, 2 animals died while blood sampling.\n58 Mice were randomly assigned into the following treatment groups:\nCells: CT26 cell lines were thawed 2 weeks before mice arrival. These were cultured in RPMI medium supplemented with 10% FBS, 1% Penicillin/streptomycin and 2% sodium pyruvate. Cells were expanded 48 hrs prior to the subcutaneous injection in 5×T175 flasks at concentration of 0.8×10^6 cells. This concentration allows cells to be 70-80% confluency at the day of the injection. Briefly, cells were washed with PBS, detached from the flasks using 3 ml of trypsin, collected with RPMI medium and centrifuged at 300 g for 5 min. These were then resuspended in PBS, counted and 0.5×10^6 cells/mouse ([…] in total for 80 mice) were taken and re-centrifuged to be resuspended in 100 μl/mouse of PBS ready to be subcutaneously injected (8 ml in total for 80 mice). […]"}, "IFNγ": {"tested_on": "IFNγ", "assay": "Intra-tumoral proteins analysis by western blot and ELISA: IFNγ", "format": "in vivo, mice", "experimental": "FIG. 2: HA15 induces in vivo the expression of CHOP and IFNg in mice tumors: tumors were harvested from the mice after HA15 treatment and crushed into lysis buffer to get protein lysates. (A). Tumor lysates were analyzed by western blotting with CHOP, IFNγ and HSP90 antibodies. Densitometric analyses were then performed on the radiogram presented here thanks to the ImageJ (Fiji) program. The signal intensity of the target protein is weighted by that of the HSP90 control. (B) The intra-tumoral […] was dosed in the lysates by a Mouse IFN-g ELISA kit. Mann-Whitney test was performed to compare statistically the protein expressions in the two different groups.\nPieces of tumor were crushed thanks to the “Precellys 24 Tissue Homogenizer” into CK Mix Tubes (#P000918-LYSK0, Bertin Technologies) in presence of protein lysis buffer containing 50 mmol/l Tris-HCl (pH 7.5), 15 mmol/l, NaCl, 1% Triton X-100, and 1× protease and phosphatase inhibitors. Tumor lysates were then centrifuged to remove cells debris.\nFor western Blot, tumor lysates are prepared in Laemmli buffer. Briefly, tumor lysates (30 μg) were separated by SDS-PAGE, transferred onto a polyvinylidene fluoride membrane (Millipore), and then exposed to the appropriate antibodies. The antibody directed against IFN-gamma was purchased from Abcam (ab133566). Proteins were visualized with the ECL System from Amersham. […]"}, "CHOP": {"tested_on": "CHOP", "assay": "Intra-tumoral proteins analysis by western blot: CHOP", "format": "in vivo, mice"}, "CT26 tumors [2]": {"tested_on": "CT26 tumors", "assay": "CT26 allografts experiment, HA15 and anti-PD1 (Example 1)", "format": "in vivo", "settings": "single treatment; CT26 allograft in BALB/c mice; HA15 0.7 mg/mouse/day IP; anti-PD1 4 injections of 0.125 mg/mouse", "experimental": "FIG. 1: CT26 cells (5.104) are injected subcutaneously in Balb/C mice. As soon as the tumors reach 50 mm^3, mice are randomly distributed into different experimental groups and treated daily (intraperitoneal) with Vehicle or HA15 (35 mg/kg) and twice a week during two weeks with anti-PD1 (6.25 mg/kg) or PBS. A: Individual tumor growth curves. B: Survival curves. Mice are euthanized when their tumor reach 800 mm^3. A log-rang (Mantel Cox) test was performed to compare statistically the survival in the different experimental groups. Ns=non-significant, *: p≤0.05, **: p≤0.01, ***: p≤0.001.\nCT26 Allografts Experiment Female BALB/cOlaHsd mice were obtained at 5 weeks of age from Envigo Laboratory. One week later, these mice were inoculated subcutaneously with CT26 cells (5×10^5 cells/mouse). As soon as its tumor reach 50 mm^3, each mouse was allocated in the different experimental group following a randomization table created with the “Graphpad Quickcalcs” tool (7 mice/group). […] Tumor volumes were determined using the equation Volume=(Length×(Width)^2)/2. […]"}, "[3]": {"settings": "liver, after HA15 treatment (data not shown)"}},
  "data": [
    {"smiles": "CC(=O)Nc1nc(-c2cccc(NS(=O)(=O)c3cccc4c(N(C)C)cccc34)c2)cs1", "note": "[HA15]", "values": [
      {"measurement": "tumor volume", "setting": "CT26 tumors [1]; after 13 days of daily oral administration, statistically significant compared with vehicle group", "value": "decreased"},
      {"measurement": "tumor weight", "setting": "CT26 tumors [1]; after mice termination at day 13, confirms the reduction in tumor growth", "value": "confirmed"},
      {"measurement": "IFNγ expression", "setting": "IFNγ; CT26 tumors harvested after HA15 treatment, western blot and ELISA", "value": "induces"},
      {"measurement": "IFNγ expression", "setting": "IFNγ; [3]", "value": "no variation"},
      {"measurement": "CHOP expression", "setting": "CHOP; CT26 tumors harvested after HA15 treatment, western blot", "value": "induces"},
      {"measurement": "CHOP expression", "setting": "CHOP; [3]", "value": "no variation"},
      {"measurement": "complete response", "setting": "CT26 tumors [2]", "value": 14, "unit": "%"}
    ]}
  ]
}
